Source: ChEMBL document CHEMBL4371067, “Discovery of N-substituted 7-azaindoles as Pan-PIM kinases inhibitors - Lead optimization - Part III” (Bioorg Med Chem Lett, 2019)
Values after ≈ are worked out from the molar mass of the structure shown. Active and inactive are the calls of the source. No cut-off for these calls is given here.

What was measured:
[1] = biological target: Serine/threonine-protein kinase pim-1 (Homo sapiens, UniProt P11309); assay: Inhibition of PIM1 (unknown origin) assessed as reduction in BAD phosphorylation at Ser-112 residue by TR-FRET assay
[2] = Efflux ratio of permeability in human Caco2/TC7 cells at 5 uM; type: ADME, cell-based; conditions: Caco-2
[3] = Thermodynamic solubility in pH 7.4 solution; type: physicochemical; conditions: buffer; for solubility thermodynamic: read-out: Therm_solubility
hERG (KCNH2) [4] = biological target: T1, hERG (KCNH2) (Homo sapiens, UniProt Q12809); assay: Inhibition of human ERG at 10 uM relative to control
[5] = Clearance in human liver microsomes assessed as drug extraction at 5 uM; type: ADME, Microsome; conditions: for hepatic extraction ratio at 5 µM: liver microsomes, read-out: CLH; for CLH: microsomes, 5 µM
[6] = biological target: Serine/threonine-protein kinase PIM (Homo sapiens, UniProt P11309+Q9P1W9+Q86V86); assay: Inhibition of PIM in human KG1 cells assessed as reduction in pS6 level; type: cell-based
hERG (KCNH2) [7] = biological target: T1, hERG (KCNH2); assay: Inhibition of human ERG at 1 uM relative to control
[8] = biological target: Serine/threonine-protein kinase pim-2 (Homo sapiens, UniProt Q9P1W9); assay: Inhibition of PIM2 (unknown origin) assessed as reduction in BAD phosphorylation at Ser-112 residue by TR-FRET assay
[9] = Permeability in human Caco2/TC7 cells at 5 uM; type: ADME, cell-based; conditions: for Papp at 5 µM: Caco-2, read-out: permeability; for permeability: caco2/tc7, 5 µM, 5 µM
KG-1 = assay: Antiproliferative activity against human KG1 cells; type: functional, cell-based
[10] = biological target: Voltage-gated inwardly rectifying potassium channel KCNH2 (Homo sapiens, UniProt Q12809); assay: Inhibition of human ERG
[11] = Clearance in mouse liver microsomes assessed as drug extraction at 5 uM; type: ADME, Microsome; conditions: for CLH: microsomes, 5 µM; for hepatic extraction ratio at 5 µM: liver microsomes, read-out: CLH
Mus musculus = assay: In vivo inhibition of PIM in mouse xenografted with human KG1 cells assessed as reduction in phosphorylated BAD level at 25 mg/kg, po administered as single dose and measured up to 24 hrs post dose relative to control; type: functional
[12] = Oral bioavailability in rat at 10 mg/kg administered as single dose; type: ADME, organism-based; conditions: in vivo
[13] = Half life in rat at 3 mg/kg, iv administered as single dose; type: ADME, organism-based; conditions: in vivo
[14] = Cmax in rat at 10 mg/kg, po administered as single dose; type: ADME, organism-based; design: dose 10 mg/kg, route oral; conditions: in vivo
[15] = Clearance in rat at 3 mg/kg, iv administered as single dose; type: ADME, organism-based; conditions: in vivo
[16] = AUC (0 to infinity) in rat at 3 mg/kg, iv administered as single dose; type: ADME, organism-based; design: dose 3 mg/kg, route intravenous, time infinity; conditions: in vivo
[17] = Volume of distribution at steady state in rat at 3 mg/kg, iv administered as single dose; type: ADME, organism-based; conditions: in vivo, read-out: Vdss
[18] = AUC (0 to infinity) in rat at 10 mg/kg, po administered as single dose; type: ADME, organism-based; design: dose 10 mg/kg, route oral, time infinity; conditions: in vivo
[19] = Half life in rat at 10 mg/kg, po administered as single dose; type: ADME, organism-based; conditions: in vivo

Row | Compound | IC50 [1] [nM] | Ki [1] [nM] | hepatic extraction ratio at 5 µM [5] | EC50 [6] [nM] | IC50 [8] [nM] | Papp at 5 µM [9] [×10⁻⁶ cm/s] | hepatic extraction ratio at 5 µM [11] | inhibition at 10 µM (hERG (KCNH2) [4]) [%] | inhibition at 1 µM (hERG (KCNH2) [7]) [%] | EC50 (KG-1; Homo sapiens, KG-1) [nM] | IC50 [10] [nM] | further results
1 | CC(O)C#Cc1c(Cl)c2c(Cl)cc(C(N)=O)nc2n1[C@H]1CCCNC1 (some centres not stated) | 1.1 | 0.7 | 0 | 13 | 9.3 | 0.34 |  | 20 | 9 | 147 |  | efflux ratio at 5 µM [2]: 37; solubility thermodynamic [3]: 206 µM (≈ 78.5 µg/mL)
2 | CC(C)(O)C#Cc1c(Cl)c2c(Cl)cc(C(N)=O)nc2n1[C@H]1CCCNC1 | 2.2 |  | 0 | 36 | 9.9 | 0.14 |  | 47 | 20 | 302 |  | 
3 | CC1(C#Cc2c(Cl)c3c(Cl)cc(C(N)=O)nc3n2[C@H]2CCCNC2)COC1 | 1.6 | 1.2 | 0.05 | 37 | 5.7 | 2.9 | 0.19 |  |  | 119 | 3000 | 
4 | CC(C)(C#N)CC#Cc1c(Cl)c2c(Cl)cc(C(N)=O)nc2n1[C@H]1CCCNC1 | 5.8 |  | 0.03 | 90 | 29.4 | 6.5 | 0.08 |  |  | 113 | 3000 | 
5 | COC(C)(C)CC#Cc1c(Cl)c2c(Cl)cc(C(N)=O)nc2n1[C@H]1CCCNC1 | 2.3 |  | 0.12 | 61 | 10.4 | 4.5 | 0.33 |  |  | 172 | 4000 | solubility thermodynamic [3]: 1.2 µM (≈ 0.508 µg/mL)
6 | NC(=O)c1cc(Cl)c2c(Cl)c(C#CCN3CCCC3=O)n([C@H]3CCCNC3)c2n1 | 2 |  | 0.03 | 93 | 6.7 | 0.01 | 0.26 |  |  | 178 | > 20000 | 
7 | NC(=O)c1cc(Cl)c2c(Cl)c(C#CCCO)n([C@H]3CCCNC3)c2n1 | 0.6 | 0.1 | 0 | 18 | 2.7 | 0.18 |  | 25 | 12 | 56 |  | efflux ratio at 5 µM [2]: 8.8; solubility thermodynamic [3]: 144 µM (≈ 54.9 µg/mL)
8 | CN1CC(C#Cc2c(Cl)c3c(Cl)cc(C(N)=O)nc3n2[C@H]2CCCNC2)CC1=O (some centres not stated) | 3.1 | 1.2 | 0.05 | 128 | 17.5 | 0.05 | 0.22 |  |  | 155 | > 20000 | 
9 | CC1(CC#Cc2c(Cl)c3c(Cl)cc(C(N)=O)nc3n2[C@H]2CCCNC2)COC1 | 2.4 |  | 0.12 | 33 | 15.7 | 1.2 | 0.35 |  |  | 289 | 5000 | 
10 | CC(C)(CC#Cc1c(Cl)c2c(Cl)cc(C(N)=O)nc2n1[C@H]1CCCNC1)C(N)=O | 4.7 |  | 0.01 | 133 | 21 | 0.4 | 0.06 |  |  | 269 | > 10000 | 
11 | COCC(C)(C)C#Cc1c(Cl)c2c(Cl)cc(C(N)=O)nc2n1[C@H]1CCCNC1 | 1.6 |  | 0.1 | 98 | 4 | 4.8 | 0.32 |  |  | 219 | 1100 | 
12 | NC(=O)c1cc(Cl)c2c(Cl)c(C#CCO)n([C@H]3CCCNC3)c2n1 | 1.7 | 3 | 0 | 59 | 11 | 0.08 |  | 28 | 22 | 301 |  | efflux ratio at 5 µM [2]: 120
13 | CC(O)CC#Cc1c(Cl)c2c(Cl)cc(C(N)=O)nc2n1[C@H]1CCCNC1 (some centres not stated) | 1 | 0.6 | 0.06 | 32 | 6.1 | 0.24 |  | 23 | 13 | 48 |  | efflux ratio at 5 µM [2]: 53; solubility thermodynamic [3]: 760 µM (≈ 300 µg/mL)

The next lines start with results.

Row | IC50 [1] [nM] | Ki [1] [nM] | hepatic extraction ratio at 5 µM [5] | EC50 [6] [nM] | IC50 [8] [nM] | Papp at 5 µM [9] [×10⁻⁶ cm/s] | hepatic extraction ratio at 5 µM [11] | Compound | inhibition at 10 µM (hERG (KCNH2) [4]) [%] | inhibition at 1 µM (hERG (KCNH2) [7]) [%] | EC50 (KG-1; Homo sapiens, KG-1) [nM] | IC50 [10] [nM] | further results
14 | 1.4 | 0.9 |  | 51 | 7.6 |  |  | NC(=O)c1cc(Cl)c2c(Cl)c(C#CC3CNCCO3)n([C@H]3CCCNC3)c2n1 (stereo in doubt; 29b) |  |  |  | > 20000 | CLH [11]: 15%; CLH [5]: 0%; permeability [9]: 2 ×10⁻⁷ cm/s; EC50 (KG-1; kg-1): 197 nM
15 | 2.3 |  |  | 95 | 6 |  |  | NC(=O)c1cc(Cl)c2c(Cl)c(C#CC3COCCO3)n([C@H]3CCCNC3)c2n1 (stereo in doubt; 22b) | 86 | 20 |  |  | CLH [11]: 4%; CLH [5]: 10%; permeability [9]: 9 ×10⁻⁷ cm/s; EC50 (KG-1; kg-1): 203 nM
16 | 0.7 |  | 0.21 | 28 | 9 | 3 |  | NC(=O)c1cc(Cl)c2c(Cl)c(C#CC3CC3)n([C@H]3CCCNC3)c2n1 | 97 | 53 | 207 |  | efflux ratio at 5 µM [2]: 2.5; inhibition (Mus musculus): Active; solubility thermodynamic [3]: 13 µM (≈ 4.9 µg/mL)
17 | 2.2 | 1.3 |  | 69 | 7.4 |  |  | NC(=O)c1cc(Cl)c2c(Cl)c(C#CC3CCCO3)n([C@H]3CCCNC3)c2n1 (stereo in doubt; 20b) |  |  |  |  | bioavailability [12]: 30%; half-life [13]: 2.32 h; CLH [11]: 37%; Cmax [14]: 54 ng/mL; clearance [15]: 150 mL/min/kg; AUC(0-inf) [16]: 324 ng·h/mL; Therm_solubility [3]: 333 µM; Vd [17]: 19.6 L/kg; AUC(0-inf) [18]: 326 ng·h/mL; CLH [5]: 24%; permeability [9]: 33 ×10⁻⁷ cm/s; half-life [19]: 3.63 h; EC50 (KG-1; kg-1): 91 nM
18 | 2.8 |  |  | 283 | 6.1 |  | 0.22 | NC(=O)c1cc(Cl)c2c(Cl)c(C#CC3CNCCO3)n([C@H]3CCCNC3)c2n1 (stereo in doubt; 29a) |  |  | 365 | 6000 | CLH [5]: 6%; permeability [9]: 8 ×10⁻⁷ cm/s
19 | 1.5 |  | 0.07 | 53 | 10.2 | 3.4 | 0.13 | NC(=O)c1cc(Cl)c2c(Cl)c(C#CC3CCOCC3)n([C@H]3CCCNC3)c2n1 |  |  | 69 | 1700 | bioavailability [12]: 67%; half-life [13]: 7.41 h; Cmax [14]: 91 ng/mL; clearance [15]: 102 mL/min/kg; AUC(0-inf) [16]: 440 ng·h/mL; Vd [17]: 63 L/kg; AUC(0-inf) [18]: 979 ng·h/mL; half-life [19]: 10.2 h
20 | 2.3 |  | 0.1 | 70 | 8.8 |  |  | NC(=O)c1cc(Cl)c2c(Cl)c(C#CC3COCCO3)n([C@H]3CCCNC3)c2n1 (stereo in doubt; 22a) |  |  |  | 1400 | CLH [11]: 30%; permeability [9]: 81 ×10⁻⁷ cm/s; EC50 (KG-1; kg-1): 77 nM
21 | 4.4 |  |  | 137 | 21 | 3.2 |  | NC(=O)c1cc(Cl)c2c(Cl)c(C#CC3CCCO3)n([C@H]3CCCNC3)c2n1 (stereo in doubt; 20a) |  |  |  |  | solubility thermodynamic [3]: 207 µM (≈ 84.3 µg/mL); EC50 (KG-1; kg-1): 223 nM
